Reference: patent US20240018129A1, “COMPOUNDS AS PU. 1 INHIBITORS” (PEKING UNIVERSITY, priority 2020, published 2024)

Legend:
NASH diet-induced NASH = NASH diet-induced NASH model; assay type: in vivo, mouse
Description: (§1) Methods: To evaluate the potential therapeutic effects of compound I-1 on liver disorders, including liver fat steatosis and accumulation, nonalcoholic fatty liver disease (NAFLD), nonalcoholic steatosis hepatitis (NASH), and liver fibrosis, three mice models (C57BL/6, male, 8 weeks old) were used. (I) NASH diet (Code.TD.160785, ENVIGO, USA)-induced NASH model: All mice were fed with NASH diet for 10 weeks. Mice were then randomly distributed into three groups, and each group was assigned to be injected daily with vehicle, compound I-1 (2.5mpk or 5mpk, i.p.), or DB1976 (2.5mpk, i.p, as a positive control) for another 6 weeks on continuous NASH diet. A group with normal regular diet was treated with vehicle as health control. (II) High-fat diet (HFD) combinate with CCl4 (lower dose)—induced NASH model. Mice were fed with normal regular diet or HFD (kcal fat 60%—D12492, research diets) for 10 weeks, then the HFD mice were divided into two groups randomly based on the rule of minimum weight differences. Each group was assigned to be injected with CCl4 (25% v/v in olive oil, 0.5 mL/kg body weight) or pure olive oil (i.p.) twice a week for 4 weeks. Compound 1-1 or vehicle (saline) were injected (i.p.) once daily for 4 weeks at the same time with CCl4 under continuous HFD. (III) CCl4 (higher dose)—induced liver fibrosis model. Liver fibrosis was induced by CCl4 injection (20% v/v in olive oil, 10 mL/kg body weight) twice a week for 6 weeks, compound I-1 or vehicle are also injected (i.p.) once daily for 6 weeks at the same time with CCl4 application. Ail the mice in the above-mentioned three models were observed daily. After the last day of treatment of all the models, mice were fasted overnight and euthanized. Serum was collected after centrifuging of the whole blood at 4 degrees, and blood biochemistry parameters were tested through automatic biochemical instrument (BS-240VET, Mindray). Part of liver tissues were fixed with paraformaldehyde, embedded with paraffin, and then sliced for H&E or Sirius red staining to check pathological features, and NAFLD scores. Kleiner, D. E. et al. Hepatology 41, 1313-1321, doi:10.1002/hep.20701 (2005). Part of liver tissues were used fresh, embedded in optimum cutting temperature compound, and sectioned. The sections were stained with 0.5% oil red 0 according to standard procedures after fixed in 4% paraformaldehyde in PBS. Another part of liver tissues were collected and stored in −80° C. after liquid nitrogen quick-freezing, RNA. isolation (Code.R6934, OMEGA., USA), first cDNA reverse (Code.AT341, TransGen, China), SYBR mix (Code.AQ601, TransGen, China) for Q-PCR (LightCycler®96, Roche) to verify genes mRNA level, such as, fibrosis-related genes, Col1a1 and Col1a2; inflammation-related genes, IL-6 and IL-1β.

[1] = test system: bleomycin-induced pulmonary fibrosis; assay: bleomycin-induced pulmonary fibrosis, preventive and therapeutic models; assay type: in vivo, mouse
Method: Methods: To evaluate the preventive and therapeutic effects of compound I-1 on pulmonary fibrosis, bleomycin was used to establish two animal models of pulmonary fibrosis with different drug intervention (6-8 weeks, C57BL/6, male). Bleomycin (0.025U, Code.D11063, OKA, China) was injected by a single intratracheal application. Equal volumes of sterilized saline served as a control. (I) Preventive model of bleomycin-induced pulmonary fibrosis. Compounds compound I-1, positive control DB1976, or vehicle (saline) were treated (injected intraperitoneally, i.p.) immediately after single bleomycin injection for 4 weeks (FIG. 4a). (II) Therapeutic model of bleomycin-induced pulmonary fibrosis. Mice were pre-charged with bleomycin for 11 days to induced pulmonary fibrosis, then treated with compounds compound I-1, positive control DB1976, or vehicle (saline) for 17 days, total time is 4 weeks after bleomycin treatment (FIG. 4h). After the last day of treatment of both models, mice were fasted overnight and euthanized. A part of lung was fixed with paraformaldehyde, embedded with paraffin, and then sliced for H&E and Sirius red staining to check pathological features, and Ashcroft scores. Hubner, R. H. et al. Biotechniques 44, 507-511, 514-507, doi:10.2144/000112729 (2008). Another part of lung were collected and stored in −80° C. after liquid nitrogen quick-freezing, RNA isolation (Code.R6934, OMEGA, USA), first cDNA reverse (Code.AT341, TransGen, China), SYBR mix (Code.AQ601, TransGen, China) for Q-PCR (LightCycle96, Roche) to verify several fibrosis-related genes mRNA level, such as, Col1a1 and Col1a2.

[2] = test system: HFD/CCL4-induced NASH and liver fibrosis; assay: High-fat diet (HFD) combined with CCl4 (lower dose)-induced NASH model; assay type: in vivo, mouse
Description: as §1

[3] = test system: T-ALL blast cells and TIM-3-high LICs; assay: Pten-null T-ALL mouse model, compound I-1 and/or rapamycin treatment
Method: To generate a Pten-null T-ALL mouse model, Pten was 40% deleted in mouse fetal liver hematopoietic stem cells (HSCs), followed by PI3K-AKT pathway activation, hematopoietic disorder and T-ALL development. In the T-ALL crisis stage, T-ALL blasts and LICs would infiltrate mouse hematopoietic organs and non-hematopoietic organs.
After treatment, hematopoietic and non-hematopoietic organ morphology of the mice was analyzed using hematoxylin-eosin (H&E) staining.

SMILES: N=C(N)c1ccc2nc(-c3ccc(NC(=O)[C@@H]4CCCN4C(=O)[C@@H]4CCCN4C(=O)c4ccc(-c5nc6ccc(C(=N)N)cc6[nH]5)cc4)cc3)[nH]c2c1 [Compound I-1, (S)-1-((4-(6-carbamimidoyl-1H-benzo[d]imidazol-2-yl)benzoyl)-L-prolyl)-N-(4-(6-carbamimidoyl-1H-benzo[d]imidazol-2-yl)phenyl)pyrrolidine-2-carboxamide]
- efficacy when comparing with DB1976 (2.5mpk) (NASH diet-induced NASH; 2.5mpk i.p. daily for 6 weeks): lower efficacy
- fat accumulation in liver (NASH diet-induced NASH; 2.5mpk i.p. daily for 6 weeks): decreased
- metabolic disturbance by NASH diet (body weight, liver fat, ALT, LDL-C, TC, IL-6, IL-1β, Col1a1, Col1a2) (NASH diet-induced NASH; 2.5mpk i.p. daily for 6 weeks): tendency to alleviate
- mRNA levels of IL-6, IL-1β and Col1a1, Col1a2 (NASH diet-induced NASH; 2.5mpk i.p. daily for 6 weeks, liver): lower
- metabolic disturbance by NASH diet (body weight, liver fat, ALT, LDL-C, TC, IL-6, IL-1β, Col1a1, Col1a2) (NASH diet-induced NASH; 5mpk i.p. daily for 6 weeks): potently alleviated
- pulmonary fibrosis progress (staining, Ashcroft scores, collagen deposition, Col1a1, Col1a2 mRNA) ([1]; preventive model, 5mpk i.p. for 4 weeks after single bleomycin injection): significantly prevented
- bleomycin-induced pulmonary fibrosis ([1]; therapeutic model, 11 days after bleomycin then 17 days treatment, 5mpk): reversed and impede
- level of serum ALT ([2]; fasting serum): tendency to reduce
- serum triglyceride (TG) and total-cholesterol (TC) ([2]; fasting serum, i.p. once daily for 4 weeks): reduced
- body weight, gWAT and iWAT weight radio increased by HFD/CCL4 ([2]; i.p. once daily for 4 weeks with CCl4 under HFD): reversed
- reducing fat accumulation (H&E staining, liver steatosis score) ([2]; liver): not efficacious
- reducing inflammatory response (inflammatory infiltrates, inflammation score, liver mRNA of IL-1β and IL-6) ([2]; liver): efficacious
- collagen deposition (sirius red staining) and liver mRNA level of Col1a1 and Col1a2 ([2]; mouse, in vivo): reduced
- hepatotoxicity under its effective concentration ([2]; mouse, in vivo): not hepatotoxic
- liver fibrosis induced by HFD/CCL4 application ([2]; mouse, in vivo): significantly alleviated
- TIM-3 high LICs proportion ([3]; after two days' treatment, bone marrow, without treatment 33.5%): 6.15%
- reduction of proportion of blasts (in words) ([3]; after two days' treatment, bone marrow, spleen and thymus): did not reduce
- organ morphology (H&E staining) compared with T-ALL group ([3]; treated at blast crisis stage for one month, thymus and spleen): no significant changes
